# According to US20240075002A1, “CREATINE COMPOSITION AND METHODS OF USING SAME” (NanoChem Solutions, Inc, priority 2022, published 2024):
# Experiment: pH of the spray dried powder
# Format: physicochemical
# Protocol: In one exemplary embodiment, an aqueous solution of creatine sodium sulfate can be produced by dissolving about 72.96 grams of sodium hydrogen sulfate in about 811.86 grams of deionized water. The solution can be heated to about 145° F. and is maintained throughout the reaction. When the temperature of the sodium hydrogen sulfate solution reaches about 145° F., about 90.63 grams of creatine monohydrate can be added to the solution whereby the heat is maintained at about 145° F. and the mixture mixes with standard agitation for approximately 1 hour. After the hour, the solution is immediately piped to the spray dryer whereby it is spray dried into a powder with a total water of 3-7% by weight and with a water activity of less than 0.4. The pH of the spray dried powder is approximately 1.7. The mesh size of the spray-dried, stable, soluble sodium hydrogen sulfate powder is approximately 40-200 mesh, but can be adjusted depending on the requirements of the customer or desired end application.
# In another exemplary embodiment, an aqueous solution of creatine potassium sulfate can be produced by dissolving about 109.53 grams of potassium hydrogen sulfate in about 806.68 grams of deionized water. The solution is can be heated to about 145° F. and is maintained throughout the reaction. […]
row,SMILES,pH of the spray dried powder
1,CN(CC(=O)O)C(=N)N.O=S(=O)([O-])[O-].[K+].[K+] [creatine potassium sulfate],approximately 1.7
2,CN(CC(=O)O)C(=N)N.O=S(=O)([O-])[O-].[Na+].[Na+] [creatine sodium sulfate],approximately 1.7
